Experiments:
[1] = molecular target: BaF3-Tel-FGFR4 cells (TEL fused to cytoplasmic domain of FGFR4) (Homo sapiens, UniProt P22455); assay: In vitro cellular kinase assay for FGFR4 (BaF3-Tel-FGFR4, MSD capture ELISA of tyrosine phosphorylation); details: 1 hour incubation
[2] = molecular target: T1, FGFR4 (GST-FGFR4(388-802)) (Homo sapiens, UniProt P22455); assay: In-vitro biochemical kinase assay for FGFR4 (Caliper mobility shift); details: 60 minutes at 30° C.
T1 construct: GST-FGFR4(388-802); GST (N); made in house; host or cells: insect cells
T1 sequence (P22455 388-802): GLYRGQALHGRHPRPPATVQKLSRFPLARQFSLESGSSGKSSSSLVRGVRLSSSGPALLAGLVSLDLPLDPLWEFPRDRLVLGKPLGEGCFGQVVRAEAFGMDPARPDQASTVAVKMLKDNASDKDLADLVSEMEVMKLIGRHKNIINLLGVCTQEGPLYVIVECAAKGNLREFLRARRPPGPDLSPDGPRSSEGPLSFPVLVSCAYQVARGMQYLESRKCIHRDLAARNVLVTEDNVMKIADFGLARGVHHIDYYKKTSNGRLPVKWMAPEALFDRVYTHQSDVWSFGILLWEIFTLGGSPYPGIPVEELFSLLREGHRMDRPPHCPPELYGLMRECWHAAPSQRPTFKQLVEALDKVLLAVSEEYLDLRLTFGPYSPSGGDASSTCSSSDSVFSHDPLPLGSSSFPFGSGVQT
Experimental: In-Vitro Biochemical Kinase Assays for FGFR4
All assays were performed in 384 well microtiter plates. Each assay plate contained 8-point serial dilutions for 40 test compounds, as well as four 8-point serial dilutions of staurosporine as reference compound, plus 16 high and 16 low controls.
(§1) Liquid handling and incubation steps were done on an Innovadyne Nanodrop Express equipped with a robotic arm (Thermo CatX, Caliper Twister II) and an incubator (Liconic STX40, Thermo Cytomat 2C450). The assay plates were prepared by addition of 50 nI per well of compound solution in 90% DMSO. […] Kinase reactions were incubated at 30° C. for 60 minutes and subsequently terminated by addition of 16 μl per well of stop solution (100 mM HEPES pH 7.5, 5% DMSO, 0.1% Caliper coating reagent, 10 mM EDTA, and 0.015% Brij35). Plates with terminated kinase reactions were transferred to the Caliper LC3000 workstations for reading. Phosphorylated and unphosphorylated peptides were separated using the Caliper microfluidic mobility shift technology. Briefly, samples from terminated kinase reactions were applied to the chip. Analytes are transported through the chip by constant buffer flow and the migration of the substrate peptide is monitored by the fluorescence signal of its label. Phosphorylated peptide (product) and unphosphorylated peptide (substrate) are separated in an electric field by their charge/mass ratio. Kinase activities were calculated from the amounts of formed phospho-peptide. IC50 values were determined from percent inhibition values at different compound concentrations by non-linear regression analysis.
Preparation of Compound Dilutions
Test compounds were dissolved in DMSO (10 mM) and transferred into 1.4 mL flat bottom or V-shaped Matrix tubes carrying a unique 2D matrix. The stock solutions were stored at […] if not used immediately. For the test procedure the vials were defrosted and identified by a scanner whereby a working sheet was generated that guided the subsequent working steps.
Compound dilutions were made in 96 well plates. This format enabled the assay of maximally 40 individual test compounds at 8 concentrations (single points) including 4 reference compounds. The dilution protocol included the production of “pre-dilution plates”, “master plates” and “assay plates”.
96 polypropylene well plates were used as pre-dilution plates. A total of 4 pre-dilution plates were prepared including 10 test compounds each on the plate positions A1-A10, one standard compound at A11 and one DMSO control at A12. All dilution steps were done on a HamiltonSTAR robot.
These plates were used directly for the assay which was performed in a total volume of 9.05 μL.

[3] = test system: HuH-7 hepatocellular carcinoma cells; assay: Methylene blue staining proliferation assay (MBS); format: cell-based; details: Homo sapiens, HuH-7 cells, 72 hours, read-out: HUH7 proliferation MBS
Experimental: Methylene Blue Staining Proliferation Assay (MBS):
The effect of compounds on cell proliferation is assessed using HuH-7 hepatocellular carcinoma cells obtained from the Japanese Collection of Research Bioresources Cell Bank (Cat# JCRB0403) and cultured in the vendor-recommended medium (DMEM high glucose (Amimed Cat#1-26F01-I), 10% foetal calf serum (Invitrogen Cat#16140-071), 1 mM sodium pyruvate (Amimed Cat#5-60F00-H), 1× Penicillin/Streptomycin (Amimed Cat#4-01F00-H)) at 37° C. in a humidified 5% CO2 incubator. […] 72 hours after compound addition, cells were fixed by adding 25 μL/well of 20% glutaraldehyde (Sigma Aldrich Cat# G400-4) and incubated for 10 minutes at room temperature. Cells were washed three times with H2O, 200 μL/well and stained with 100 μL/well 0.05% methylene blue (ABCR GmbH Cat# AB117904) for 10 minutes at room temperature. Cells were washed 3 times with H2O, 200 μL/well and then lysed by adding 200 μL/well of 3% HCl (Fluka Cat#84422) for 30 minutes at room temperature with shaking. Optical density was measured at A650 nm. The concentration of compound providing 50% of proliferation inhibition with respect to DMSO-treated cells was determined (IC50) using XLFit software.

[4] = test system: HuH-7 hepatocellular carcinoma cells; assay: CellTiter Glo (CTG) proliferation/viability assay; format: cell-based; details: HuH-7 cells, 3 days, half-maximal growth inhibition (GI50), read-out: HUH7 proliferation CTG
Experimental: CellTiter Glo (CTG) Assay:
The functional effect of compounds on cell proliferation is assessed using HuH-7 hepatocellular carcinoma cells obtained from the Japanese Collection of Research Bioresources Cell Bank (Cat# JCRB0403) and cultured in the vendor-recommended medium (DMEM high glucose (Amimed Cat#1-26F01-I), 10% foetal calf serum (Invitrogen Cat#16140-071), 1 mM sodium pyruvate (Amimed Cat#5-60F00-H), 1× Penicillin/Streptomycin (Amimed Cat#4-01F00-H)) at 37° C. in a humidified 5% CO2 incubator. Compound-mediated suppression of cell proliferation/viability is assessed by quantification of cellular ATP levels using the CellTiter-Glo (CTG) reagent (Promega, Cat# G7573). Briefly, cells are seeded at 3′000 cells/well/80 μl fresh medium into tissue-culture-treated 96-well plates (Costar Cat#3904), followed by addition of 20 μl medium containing compound dilutions at 5-fold their final intended concentration. Dose-response effects are assessed by 3-fold serial dilutions of the test compound, starting at 10 μM. Following incubation of the cells for 3 days at 37° C. and 5% CO2, the effect of inhibitors on cell viability is quantified following addition of 50 μl CTG and luminescence measurement (integration time: 500 ms) as per vendor manual, using a correspondingly equipped multi-mode plate reader (M200Pro, TECAN, Switzerland). For data analysis, the assay background value determined in wells containing medium, but no cells, is subtracted from all data points. To enable differentiation of cytotoxic from cytostatic compounds, the number of viable cells is assessed relative to that observed at the time of compound addition using a separate cell plate (day 0). The effect of a particular test compound concentration on cell proliferation/viability is expressed as percentage of the background- and day 0-corrected luminescence reading obtained for cells treated with vehicle only (DMSO, 0.1% f.c.), which is set as 100%, whereas the luminescence reading for wells containing medium only, but no cells, is set as −100%. Compound concentrations leading to half-maximal growth inhibition (GI50) are determined using standard four parameter curve fitting (XLfit 5.2., IDBS, UK).

FGFR2 (406-821) = molecular target: T2, FGFR2 (406-821) (Homo sapiens, UniProt P21802); assay: In vitro biochemical assay for FGFR2
T2 construct: FGFR2 (406-821)
T2 sequence (P21802 406-821): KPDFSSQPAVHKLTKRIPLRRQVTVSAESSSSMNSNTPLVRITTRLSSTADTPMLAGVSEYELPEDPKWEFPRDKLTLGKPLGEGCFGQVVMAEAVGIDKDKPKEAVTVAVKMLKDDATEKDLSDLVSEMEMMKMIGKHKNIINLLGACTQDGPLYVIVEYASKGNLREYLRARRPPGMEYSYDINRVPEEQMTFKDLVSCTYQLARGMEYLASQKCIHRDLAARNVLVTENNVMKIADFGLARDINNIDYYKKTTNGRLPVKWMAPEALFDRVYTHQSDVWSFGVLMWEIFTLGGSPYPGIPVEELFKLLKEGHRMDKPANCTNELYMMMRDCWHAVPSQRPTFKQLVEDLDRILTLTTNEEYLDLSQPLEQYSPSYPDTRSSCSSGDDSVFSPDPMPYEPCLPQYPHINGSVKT
Experimental: as §1
(§2) In vitro biochemical assays for FGFR1 (407-822), FGFR2 (406-821) and FGFR3 (411-806) were conducted in a similar manner to the in vitro biochemical assay for FGFR4 described above, using the indicated portions of the kinase domains. The following examples all produced IC50 values >10000 nM in the biochemical FGFR1, FGFR2 and FGFR3 assays: 2, 3, 4, 11, 13, 16, 17, 18, 20, 28, 30.

FGFR3 (411-806) = molecular target: T3, FGFR3 (411-806) (Homo sapiens, UniProt P22607); assay: In vitro biochemical assay for FGFR3
T3 construct: FGFR3 (411-806)
T3 sequence (P22607 411-806): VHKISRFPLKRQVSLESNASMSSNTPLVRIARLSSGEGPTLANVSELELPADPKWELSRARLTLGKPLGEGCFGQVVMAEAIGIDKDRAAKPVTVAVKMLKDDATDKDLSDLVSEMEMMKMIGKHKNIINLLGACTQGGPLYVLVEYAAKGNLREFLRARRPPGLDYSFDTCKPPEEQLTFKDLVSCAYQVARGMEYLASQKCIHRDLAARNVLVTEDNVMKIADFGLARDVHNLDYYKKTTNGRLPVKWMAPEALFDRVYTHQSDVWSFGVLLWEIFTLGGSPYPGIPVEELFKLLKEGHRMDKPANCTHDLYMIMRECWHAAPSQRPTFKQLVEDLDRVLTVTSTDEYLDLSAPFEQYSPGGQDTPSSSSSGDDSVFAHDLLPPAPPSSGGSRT
Experimental: as §1, §2

FGFR1 (407-822) = molecular target: T4, FGFR1 (407-822) (Homo sapiens, UniProt P11362); assay: In vitro biochemical assay for FGFR1
T4 construct: FGFR1 (407-822)
T4 sequence (P11362 407-822): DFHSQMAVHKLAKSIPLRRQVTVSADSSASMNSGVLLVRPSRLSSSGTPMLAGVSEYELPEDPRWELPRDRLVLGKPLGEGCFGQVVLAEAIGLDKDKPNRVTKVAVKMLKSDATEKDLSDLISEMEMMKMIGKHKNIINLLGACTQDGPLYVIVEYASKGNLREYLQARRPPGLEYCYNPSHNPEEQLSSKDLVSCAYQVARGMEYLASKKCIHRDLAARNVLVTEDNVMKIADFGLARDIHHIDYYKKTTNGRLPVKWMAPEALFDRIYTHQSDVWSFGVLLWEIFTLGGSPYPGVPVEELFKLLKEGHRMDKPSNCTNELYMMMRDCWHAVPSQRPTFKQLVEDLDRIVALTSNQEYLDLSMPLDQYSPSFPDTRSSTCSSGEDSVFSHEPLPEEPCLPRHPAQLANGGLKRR
Experimental: as §1, §2

Sequence of BaF3-Tel-FGFR4 cells (TEL fused to cytoplasmic domain of FGFR4) (P22455 with tags, fused parts or gaps): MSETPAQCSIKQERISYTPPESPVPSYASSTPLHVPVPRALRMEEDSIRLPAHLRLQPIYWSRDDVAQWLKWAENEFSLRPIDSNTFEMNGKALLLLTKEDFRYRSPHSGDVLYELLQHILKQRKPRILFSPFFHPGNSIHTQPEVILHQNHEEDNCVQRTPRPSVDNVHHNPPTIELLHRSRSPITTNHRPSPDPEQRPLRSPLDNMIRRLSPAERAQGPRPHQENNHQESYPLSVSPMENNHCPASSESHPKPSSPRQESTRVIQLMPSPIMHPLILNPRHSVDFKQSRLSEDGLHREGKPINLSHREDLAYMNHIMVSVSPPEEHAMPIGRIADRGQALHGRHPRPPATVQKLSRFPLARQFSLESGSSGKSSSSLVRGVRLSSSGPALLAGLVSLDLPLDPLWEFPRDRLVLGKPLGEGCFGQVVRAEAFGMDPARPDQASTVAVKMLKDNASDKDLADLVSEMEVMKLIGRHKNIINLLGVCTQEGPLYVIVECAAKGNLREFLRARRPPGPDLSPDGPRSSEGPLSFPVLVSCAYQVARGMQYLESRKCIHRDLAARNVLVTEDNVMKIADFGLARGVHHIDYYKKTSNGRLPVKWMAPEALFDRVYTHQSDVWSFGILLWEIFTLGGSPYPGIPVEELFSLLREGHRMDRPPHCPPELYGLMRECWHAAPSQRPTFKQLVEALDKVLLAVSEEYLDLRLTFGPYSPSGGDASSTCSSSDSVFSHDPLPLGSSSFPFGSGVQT

| SMILES | IC50 [1] [nM] | IC50 [2] [nM] | IC50 [3] [nM] | IC50 ([4]; Homo sapiens, Huh-7, 72 h) [nM] | IC50 (FGFR2 (406-821)) [nM] | IC50 (FGFR3 (411-806)) [nM] | IC50 (FGFR1 (407-822)) [nM] | IC50 [4] [nM] |
| --- | --- | --- | --- | --- | --- | --- | --- | --- |
| CCN(C(=O)Nc1cc(NCCOC)c(C#N)cn1)c1ccc(-c2cnn(C)c2)c(C=O)n1 [Example 10, 3-(5-cyano-4-((2-methoxyethyl)amino)pyridin-2-yl)-1-ethyl-1-(6-formyl-5-(1-methyl-1H-pyrazol-4-yl)pyridin-2-yl)urea] | 13 | 10 | 1090 |  |  |  |  |  |
| CC(C)Oc1cc(NC(=O)N(C)c2ccc(CN3CCN(C)CC3)c(C=O)n2)ncc1C#N [Example 17, 3-(5-cyano-4-isopropoxypyridin-2-yl)-1-(6-formyl-5-((4-methylpiperazin-1-yl)methyl)pyridin-2-yl)-1-methylurea] | 145 | 29 |  | 2760 | > 10000 | > 10000 | > 10000 |  |
| CC(C)Oc1cc(NC(=O)N(C)c2ccc(C(F)F)c(C=O)n2)ncc1C#N [Example 18, 3-(5-cyano-4-isopropoxypyridin-2-yl)-1-(5-(difluoromethyl)-6-formylpyridin-2-yl)-1-methylurea] | 25 | 1.9 | 191 | 463 | > 10000 | > 10000 | > 10000 |  |
| CC(C)Oc1cc(NC(=O)Nc2nccc(C=O)n2)ncc1C#N [Example 30, 1-(5-cyano-4-isopropoxypyridin-2-yl)-3-(4-formylpyrimidin-2-yl)urea] | 982 | 100 |  | > 3000 | > 10000 | > 10000 | > 10000 |  |

The remaining lines, values ahead:

| IC50 [1] [nM] | IC50 [2] [nM] | IC50 [3] [nM] | IC50 ([4]; Homo sapiens, Huh-7, 72 h) [nM] | IC50 (FGFR2 (406-821)) [nM] | IC50 (FGFR3 (411-806)) [nM] | IC50 (FGFR1 (407-822)) [nM] | IC50 [4] [nM] | SMILES |
| --- | --- | --- | --- | --- | --- | --- | --- | --- |
| 1270 | 1.3 | > 3000 | > 3000 |  |  |  |  | COCCNc1cc(NC(=O)N(C)c2ccc(C(=O)O)c(C=O)n2)ncc1C#N [Example 9, 6-(3-(5-cyano-4-((2-methoxyethyl)amino)pyridin-2-yl)-1-methylureido)-2-formylnicotinic acid] |
| 53 | 5.8 |  | 664 | > 10000 | > 10000 | > 10000 |  | COCCNc1cc(NC(=O)N(C)c2ccc(-c3cnn(C)c3)c(C=O)n2)ncc1C#N [Example 13, 3-(5-cyano-4-((2-methoxyethyl)amino)pyridin-2-yl)-1-methyl-1-(6-formyl-5-(1-methyl-1H-pyrazol-4-yl)pyridin-2-yl)urea] |
| 4.8 |  | 25 | 106 |  |  |  |  | COCCNc1cc(NC(=O)N(C)c2ccc(CN(C)C(C)=O)c(C=O)n2)ncc1C#N [Example 15, N-((6-(3-(5-cyano-4-((2-methoxyethyl)amino)pyridin-2-yl)-1-methylureido)-2-formylpyridin-3-yl)methyl)-N-methylacetamide] |
| 7.7 | 2.7 | 51 | 90 | > 10000 | > 10000 | > 10000 |  | COCCNc1cc(NC(=O)N(C)c2ccc(C(F)F)c(C=O)n2)ncc1C#N [Example 16, 3-(5-cyano-4-((2-methoxyethyl)amino)pyridin-2-yl)-1-(5-(difluoromethyl)-6-formylpyridin-2-yl)-1-methylurea] |
| 5.3 | 4.3 |  | 100 | > 10000 | > 10000 | > 10000 |  | COCCNc1cc(NC(=O)N(C)c2ccc(CN3CCCC3=O)c(C=O)n2)ncc1C#N [Example 20, 3-(5-cyano-4-((2-methoxyethyl)amino)pyridin-2-yl)-1-(6-formyl-5-((2-oxopyrrolidin-1-yl)methyl)pyridin-2-yl)-1-methylurea] |
| 2640 | 480 |  | > 3000 | > 10000 | > 10000 | > 10000 | 2660 | COCCNc1cc(Nc2ccnn2-c2ccc(-c3cnn(C)c3)c(C=O)n2)ncc1C(F)(F)F [Example 28, 6-(5-((4-((2-methoxyethyl)amino)-5-(trifluoromethyl)pyridin-2-yl)amino)-1H-pyrazol-1-yl)-3-(1-methyl-1H-pyrazol-4-yl)picolinaldehyde] |

Source: US10189813B2, “Formylated N-heterocyclic derivatives as FGFR4 inhibitors” (NOVARTIS AG, priority 2015, dated 2019)
